In US7659397B2, “Pyrithione complex compound, process for producing the same and use thereof” (priority 2003, dated 2010):
Read-outs that look alike come from different tables or passages of the source.

Assays:
[1] = for Solubility in seawater, Molecular weight conversion / Solubility in seawater, Dissolved zinc-copper: pH = 8.2
Method: Formulation of artificial seawater (g/L)
0.1 g of the sample was added in 500 mL of artificial seawater, which was then stirred at 20° C. and 30° C. for 4 hours and filtered, and the filtrate was subjected to atomic absorption analysis.

[2] = system: Escherichia coli NBRC 3972; settings: for Minimum growth inhibitive concentration of bacteria, Escherichia coli: NB agar medium with lactose, 30° C., 3 days
Method: (§1) Preparation of a sample: the extract was dissolved in dimethylsulfoxide, to which an aqueous 0.1 W % Tween 80 was added to make a sample solution.
NB agar medium to which lactose is added, 30° C., 3 days

[3] = system: Staphylococcus aureus NBRC 12732; settings: for Minimum growth inhibitive concentration of bacteria, Staphylococcus aureus: Soybean casein digest agar medium, 30° C., 5 days
Method: as §1
Soybean casein digest agar medium, 30° C., 5 days

[4] = Weathering of polyethylene resin molded article (color difference, yellow index); assay type: physicochemical; settings: for ΔE* / ΔYI: Sample after hung in the sun versus before; for degree of coloring: after hung in the sun, ranking
Method: Then, the resin materials were respectively applied to a sheet having a size of 200 mm×200 mm×1.1 mm by press molding in the condition of 140° C. and 200 kgf/cm^2. Two test pieces of 30 mm×110 mm were cut from each of the four sheets and hung in the sun from 8 a.m. to 5 p.m. for five fine weather days selected from among the term between Sep. 15 and […].

[5] = system: Pseudomonas aeruginosa IAM 1514; experiment: Antibacterial test (MIC), alone and combined with isothiazolone preparation; assay type: cell-based; settings: Table 3, Example 16
Method: (§2) Preparation of a sample: the white powder is added in a fixed concentration.
(§3) Culture condition: 28° C., 24 hours, shake culture

[6] = system: Escherichia coli IFO 3972; experiment: Antibacterial test (MIC), shake culture; assay type: cell-based; settings: 24 hours
Method: as §2, §3

[7] = system: Bacillus subtilis IFO 3215; experiment: Antibacterial test (MIC), shake culture; assay type: cell-based; settings: 24 hours
Method: as §2, §3

[8] = system: Malassezia furfur NBRC 0656; settings: YM agar medium with olive oil, 30° C., 6 days
Method: as §1
YM agar medium to which olive oil is added, 30° C., 6 days

[9] = system: oculus membrane mucosa; settings: aqueous 2.0 W % suspension instilled in the eye
Description: (§4) The pyrithione complex compound represented by the formula (I) is used as an antidandruff agent to be formulated in hair-care products such as shampoos and hair rinses like conventional zinc pyrithione. […] Also, the zinc pyrithione/zinc oxide complex compound and zinc pyrithione were respectively added to purified water in an amount of 2% by weight and each suspension was allowed to stand in a well-lighted room to observe the degree of coloration of the suspension.

[10] = 2% by weight in purified water, well-lighted room, one week
Description: as §4

[11] = Stability in DMSO (coloring of filtrate); assay type: physicochemical
Method: 2 g of each of these four compounds was added in 10 g of DMSO, allowed to stand at ambient temperature in a laboratory and filtered, to examine coloring of the filtrate. Then, the filter residue was again added to 10 g of DMSO to carry out the same operation.

[12] = system: Aspergillus niger ATCC 6275; experiment: Antibacterial test (MIC), agar medium; settings: Potato dextrose agar medium, 30° C., 7 days
[13] = Sample after hung in the sun, five days
[14] = Sample before hung in the sun, 0.15 parts in LDPE

| Molecule | Solubility in seawater, Molecular weight conversion ([1]; 20° C.) [µg/mL] | Solubility in seawater, Molecular weight conversion ([1]; 30° C.) [µg/mL] | Minimum growth inhibitive concentration of bacteria, Escherichia coli [2] [mg/L] | Minimum growth inhibitive concentration of bacteria, Staphylococcus aureus [3] [mg/L] | ΔE* [4] | ΔYI [4] | L* [4, 13] | YI [4, 13] | a* [4, 13] | b* [4, 13] | L* [4, 14] | YI [4, 14] | a* [4, 14] | b* [4, 14] | degree of coloring [4] | Minimum growth inhibitive concentration of bacteria, Malassezia furfur [8] [mg/L] | degree of coloration of the suspension [10] | Solubility in seawater, Dissolved zinc-copper ([1]; 20° C.) | Minimum growth inhibitive concentration of bacteria, Aspergillus niger [12] [mg/L] | further results |
| --- | --- | --- | --- | --- | --- | --- | --- | --- | --- | --- | --- | --- | --- | --- | --- | --- | --- | --- | --- | --- |
| Zinc pyrithione | 6.1 | 7.4 | 20 | 2.5 | 20.18 | 34.00 | 82.16 | 34.70 | −5.00 | 19.68 | 86.87 | 0.71 | −0.79 | 0.51 | the largest | 5 | colored in yellow | – | – | Minimum growth inhibitive concentration of bacteria, Pseudomonas aeruginosa [5]: >1000 mg/L; Minimum growth inhibitive concentration of bacteria, Escherichia coli ([6]; Table 1, Example 14, 28° C.): 5 mg/L; Minimum growth inhibitive concentration of bacteria, Escherichia coli ([6]; Table 2, Example 15, 28° C.): 2.5 mg/L; Minimum growth inhibitive concentration of bacteria, Bacillus subtilis ([7]; Table 1, Example 14, 28° C.): 2.5 mg/L; Minimum growth inhibitive concentration of bacteria, Bacillus subtilis ([7]; Table 2, Example 15, 28° C.): 1 mg/L; primary irritation (criterion by the Draize method) [9]: slightly irritant; coloring of the first filtrate ([11]; 2 g in 10 g of DMSO, ambient temperature): brown appearance; coloring of the second filtrate ([11]; filter residue again added to 10 g of DMSO): brown appearance |
| [Cu+2].[Cu+2].[Cu+2].[O-][n+]1ccccc1[S-].[O-][n+]1ccccc1[S-].[O-][n+]1ccccc1[S-].[O-][n+]1ccccc1[S-].[O-][n+]1ccccc1[S-].[O-][n+]1ccccc1[S-].[O]=[Cu] [Example 9 Chloroform extract, copper pyrithione/copper (II) oxide complex compound] | 0.6 | 0.6 | – | – | – | – | – | – | – | – | – | – | – | – | – | – | – | 0.14 (Cu) mg/L | 5 | Solubility in seawater, Dissolved zinc-copper ([1]; 30° C.): 0.15 (Cu) mg/L; solubility in seawater ([1]; as stated in the description): about 0.6 ppm |
| [O-2].[O-][n+]1ccccc1S.[O-][n+]1ccccc1S.[O-][n+]1ccccc1S.[O-][n+]1ccccc1S.[O-][n+]1ccccc1S.[O-][n+]1ccccc1S.[Zn+2].[Zn+2].[Zn+2].[Zn+2] [Example 3 Chloroform extract, zinc pyrithione-zinc oxide complex compound] | 3.2 | 4.3 | 10 | 1.25 | 11.52 | 19.93 | 81.92 | 21.52 | −3.05 | 11.52 | 84.78 | 1.58 | −0.28 | 0.71 | smaller | 5 | slightly yellowed | 0.82 (Zn) mg/L | – | antibacterial ability to Escherichia coli ([2]; compared with zinc pyrithione): higher; antibacterial ability to Staphylococcus aureus ([3]; compared with zinc pyrithione): higher |
| On1ccccc1=S.On1ccccc1=S.[Cu] [Copper pyrithione] | 0.1 | 0.2 | – | – | – | – | – | – | – | – | – | – | – | – | – | – | – | – | 20 | – |
